Key:
OE19 (3A1) = target: T1, OE19 (3A1) (Homo sapiens, UniProt P30838); experiment: Cellular ALDEFLUOR assay in OE19 cells (preferential ALDH3A1 expression); settings: for Cell_Efficacy: Table S5, OE19 cells; for Cell_CC-v2: Table S5, cellular curve class
T1 sequence (P30838 1-453): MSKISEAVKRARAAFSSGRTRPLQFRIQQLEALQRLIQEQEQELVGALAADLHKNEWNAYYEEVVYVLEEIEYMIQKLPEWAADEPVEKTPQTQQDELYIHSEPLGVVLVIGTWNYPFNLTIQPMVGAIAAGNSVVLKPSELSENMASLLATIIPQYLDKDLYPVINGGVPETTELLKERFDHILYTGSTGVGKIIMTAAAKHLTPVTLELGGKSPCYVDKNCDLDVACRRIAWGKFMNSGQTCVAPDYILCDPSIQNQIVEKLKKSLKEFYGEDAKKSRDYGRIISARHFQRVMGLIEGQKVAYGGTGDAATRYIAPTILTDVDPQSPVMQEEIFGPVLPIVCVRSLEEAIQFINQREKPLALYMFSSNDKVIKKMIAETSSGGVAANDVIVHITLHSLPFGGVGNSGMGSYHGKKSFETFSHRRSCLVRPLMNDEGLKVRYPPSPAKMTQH

Human ALDH3A1 = target: T2, Human ALDH3A1 (Homo sapiens, UniProt P30838); experiment: ALDH3A1 biochemical assay (benzaldehyde/NADP+, diaphorase-resazurin readout, 1,536-well); settings: for Efficacy: Table S5, biochemical; for CC-v2: Table S5, biochemical curve class
T2 sequence (P30838 1-453): T1 sequence (P30838 1-453)

SMILES | AC50 (OE19 (3A1)) [nM] | Cell_Efficacy (OE19 (3A1)) | Cell_CC-v2 (OE19 (3A1)) | AC50 (Human ALDH3A1) [nM] | Efficacy (Human ALDH3A1) | CC-v2 (Human ALDH3A1)
CC(=O)c1ccc(CNC(=O)c2csc(N3CCN(c4cccc(C(F)(F)F)c4)CC3)n2)cc1 [NCGC01397292-01] | 683 | -111.50 | -2.1 | 20 | -100.00 | -1.1
N#Cc1ccc(CNC(=O)c2csc(N3CCN(c4cccc(C(F)(F)F)c4)CC3)n2)cc1F [NCGC01397293-01] | 766 | -101.81 | -1.1 | 5.6 | -100.05 | -1.1
O=C(NCc1ccc(-c2ccncc2)nc1)c1csc(N2CCN(c3cccc(C(F)(F)F)c3)CC2)n1 [NCGC01397294-01] | 8460 | -106.03 | -1.3 | 78.2 | -73.44 | -1.2
O=C(NCc1cc(F)cc(Br)c1)c1csc(N2CCN(c3cccc(C(F)(F)F)c3)CC2)n1 [NCGC01397297-01] | 2160 | -85.43 | -1.1 | 3.6 | -107.41 | -1.1
O=C(NCc1cccc([S+](=O)([O-])C(F)(F)F)c1)c1csc(N2CCN(c3cccc(C(F)(F)F)c3)CC2)n1 [NCGC01397299-01] | 79.4 | -61.99 | -1.2 | 447 | -37.47 | -1.2
O=C(NCc1ccc(-c2ccsc2)cc1)c1csc(N2CCN(c3cccc(C(F)(F)F)c3)CC2)n1 [NCGC01397331-01] | 3050 | -82.49 | -1.3 | 4 | -97.11 | -1.1
O=C(NC1CC1)c1ccc(CNC(=O)c2csc(N3CCN(c4cccc(C(F)(F)F)c4)CC3)n2)cc1 [NCGC01397384-01] |  | -16.71 | 4 | 1580 | -41.09 | -1.2
O=C(NCc1cccc(N2CCCC2=O)c1)c1csc(N2CCN(c3cccc(C(F)(F)F)c3)CC2)n1 [NCGC01397385-01] | 17800 | 23.55 | 5 | 708 | -71.46 | -1.2
O=C(Nc1ccc(CNC(=O)c2csc(N3CCN(c4cccc(C(F)(F)F)c4)CC3)n2)cc1)c1ccncc1 [NCGC01397389-01] | 7080 | -125.53 | -2.1 |  | -20.50 | 4
CC1(C)Oc2ccc(CNC(=O)c3csc(N4CCN(c5cccc(C(F)(F)F)c5)CC4)n3)cc2O1 [NCGC01397390-01] | 1920 | -76.04 | -1.1 | 25.1 | -96.99 | -1.1
N#Cc1cccc(CNC(=O)c2csc(N3CCN(c4cccc(C(F)(F)F)c4)CC3)n2)c1 [NCGC01397393-01] | 965 | -104.84 | -2.2 | 2.2 | -100.26 | -1.1
O=C(Nc1ccc(F)cc1)c1ccc(CNC(=O)c2csc(N3CCN(c4cccc(C(F)(F)F)c4)CC3)n2)cc1 [NCGC01407706-01] |  | 0.00 | 4 | 89.2 | -65.00 | -1.2
Cc1cc(CNC(=O)c2csc(N3CCN(c4cccc(C(F)(F)F)c4)CC3)n2)cc(C)c1Br [NCGC01407759-01] |  | 0.00 | 5 | 398 | -29.26 | -1.4
O=C(NCc1ccccc1-c1ccc(Cl)cc1Cl)c1csc(N2CCN(c3cccc(C(F)(F)F)c3)CC2)n1 [NCGC01407762-01] | 11200 | -62.69 | -1.4 |  | 0.00 | 4
CC(C)(C)c1cccc(CNC(=O)c2csc(N3CCN(c4cccc(C(F)(F)F)c4)CC3)n2)c1 [NCGC01407765-01] | 282 | -76.28 | -1.2 | 447 | -37.12 | -1.2
Cc1cc(CNC(=O)c2csc(N3CCN(c4cccc(C(F)(F)F)c4)CC3)n2)ccc1-c1ccccc1 [NCGC01407768-01] | 15800 | -93.67 | -1.3 | 316 | -32.49 | -1.2

SMILES | AC50 (OE19 (3A1)) [nM] | Cell_Efficacy (OE19 (3A1)) | Cell_CC-v2 (OE19 (3A1)) | AC50 (Human ALDH3A1) [nM] | Efficacy (Human ALDH3A1) | CC-v2 (Human ALDH3A1)
O=C(NCc1ccc(SC(F)(F)F)cc1)c1csc(N2CCN(c3cccc(C(F)(F)F)c3)CC2)n1 [NCGC01407771-01] | 3050 | -89.96 | -1.2 | 25.1 | -94.50 | -1.1
Cc1ccc(CNC(=O)c2csc(N3CCN(c4cccc(C(F)(F)F)c4)CC3)n2)cc1C(F)(F)F [NCGC01407772-01] | 644 | -100.81 | -1.1 | 59.6 | -88.60 | -1.1
O=C(NCc1ccc(N2CCNC2=O)cc1)c1csc(N2CCN(c3cccc(C(F)(F)F)c3)CC2)n1 [NCGC01407779-01] | 2240 | -130.58 | -1.1 | 794 | -73.90 | -1.2
CC(C)(C)c1cc(CNC(=O)c2csc(N3CCN(c4cccc(C(F)(F)F)c4)CC3)n2)cc(C(C)(C)C)c1 [NCGC01407780-01] |  | 0.00 | 4 |  | -7.18 | 4
O=C(COc1cccc(CNC(=O)c2csc(N3CCN(c4cccc(C(F)(F)F)c4)CC3)n2)c1)NC1CC1 [NCGC01407783-01] | 31.6 | -92.90 | -1.3 | 398 | -80.39 | -1.1
O=C(NCc1ccc2c(c1)CCC2)c1csc(N2CCN(c3cccc(C(F)(F)F)c3)CC2)n1 [NCGC01407784-01] | 40.7 | -74.47 | -1.2 | 18.8 | -99.55 | -1.1
O=C(NCc1ccc2cc(Cl)ccc2c1)c1csc(N2CCN(c3cccc(C(F)(F)F)c3)CC2)n1 [NCGC01407805-01] | 965 | -69.34 | -1.4 | 2.8 | -102.00 | -1.1
O=C(NCc1ccc(C#CC2CC2)cc1)c1csc(N2CCN(c3cccc(C(F)(F)F)c3)CC2)n1 [NCGC01407809-01] | 9650 | -60.41 | -1.4 | 14.1 | -101.87 | -1.1
Cc1cccc(COc2ccc(CNC(=O)c3csc(N4CCN(c5cccc(C(F)(F)F)c5)CC4)n3)cc2)c1 [NCGC01407816-01] | 20000 | -99.22 | -1.1 | 200 | -21.51 | 5
C[S+](=N)([O-])c1cccc(CNC(=O)c2csc(N3CCN(c4cccc(C(F)(F)F)c4)CC3)n2)c1 (centres unmarked) [NCGC01407817-01] | 31.6 | -111.10 | -1.1 | 8910 | -57.06 | -1.2
C[S+](=O)([O-])c1ccc(CNC(=O)c2csc(N3CCN(c4cccc(C(F)(F)F)c4)CC3)n2)cc1 [NCGC01407818-01] | 200 | -88.67 | -1.1 | 447 | -62.88 | -1.2
O=C(NCc1cccc(OC(F)(F)F)c1)c1csc(N2CCN(c3cccc(C(F)(F)F)c3)CC2)n1 [NCGC01407819-01] | 316 | -103.28 | -1.1 | 501 | -83.40 | -1.1
O=C(NCc1ccc(C(F)(F)F)c(Cl)c1)c1csc(N2CCN(c3cccc(C(F)(F)F)c3)CC2)n1 [NCGC01407914-01] | 609 | -99.51 | -1.3 | 28.2 | -95.28 | -1.1
O=C(NCc1ccc(Oc2ccc(F)cc2)cc1)c1csc(N2CCN(c3cccc(C(F)(F)F)c3)CC2)n1 [NCGC01407922-01] | 2240 | -108.81 | -1.1 | 398 | -26.41 | -1.4
O=C(NCc1cccc(CC(F)(F)F)c1)c1csc(N2CCN(c3cccc(C(F)(F)F)c3)CC2)n1 [NCGC01407930-01] | 860 | -116.21 | -2.1 | 11.2 | -103.16 | -1.1
O=C(NCc1ccc(S(F)(F)(F)(F)F)cc1)c1csc(N2CCN(c3cccc(C(F)(F)F)c3)CC2)n1 [NCGC01407933-01] | 2720 | -85.12 | -1.1 | 28.2 | -87.34 | -1.1

From publication PMC13266984 (Journal of medicinal chemistry, 2026)
